In PubChem BioAssay AID2060492 (Molecular Pharmacology Branch, DTP, NCI, 2025):
Blank lines part the entries; values can stand above or below the compound they belong to.

Tested on: 695427-040-R-J1-PDC complex spheroids, viability percent T/C
Test: Anticancer human tumor 695427-040-R-J1-PDC patient-derived colon adenocarcinoma cell line growth inhibition [GQUAD]
Settings: for IC50: curve of first compound; for viability, T/C: stronger effect = lower value
Procedure, shortened: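 Tumor cells were grown as complex spheroids with HUVEC endothelial cells and mesenchymal stem cells as stroma. G-quadruplex stabilizers were combined with targeted agents over half-log dilutions from near the clinical Cmax, or from 10 microM.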

[1] = second compound 0.0316 µM, first compound 0.0316 µM
[2] = second compound 0.0316 µM, first compound 0.1 µM
[3] = second compound 0.0316 µM, first compound 0.316 µM
[4] = second compound 0.0316 µM, first compound 1 µM
[5] = second compound 0.0316 µM, first compound 3.16 µM
[6] = second compound 0.0316 µM, first compound 10 µM
[7] = second compound 0.1 µM, first compound 0.0316 µM
[8] = second compound 0.1 µM, first compound 0.1 µM
[9] = second compound 0.1 µM, first compound 0.316 µM
[10] = second compound 0.1 µM, first compound 1 µM
[11] = second compound 0.1 µM, first compound 3.16 µM
[12] = second compound 0.1 µM, first compound 10 µM
[13] = second compound 0.316 µM, first compound 0.0316 µM
[14] = second compound 0.316 µM, first compound 0.1 µM
[15] = second compound 0.316 µM, first compound 0.316 µM
[16] = second compound 0.316 µM, first compound 1 µM
[17] = second compound 0.316 µM, first compound 3.16 µM
[18] = second compound 0.316 µM, first compound 10 µM
[19] = second compound 1 µM, first compound 0.0316 µM
[20] = second compound 1 µM, first compound 0.1 µM
[21] = second compound 1 µM, first compound 0.316 µM
[22] = second compound 1 µM, first compound 1 µM
[23] = second compound 1 µM, first compound 3.16 µM
[24] = second compound 1 µM, first compound 10 µM
[25] = second compound 3.16 µM, first compound 0.0316 µM
[26] = second compound 3.16 µM, first compound 0.1 µM
[27] = second compound 3.16 µM, first compound 0.316 µM
[28] = second compound 3.16 µM, first compound 1 µM
[29] = second compound 3.16 µM, first compound 3.16 µM
[30] = second compound 3.16 µM, first compound 10 µM
[31] = second compound 10 µM, first compound 0.0316 µM
[32] = second compound 10 µM, first compound 0.1 µM
[33] = second compound 10 µM, first compound 0.316 µM
[34] = second compound 10 µM, first compound 1 µM
[35] = second compound 10 µM, first compound 3.16 µM
[36] = second compound 10 µM, first compound 10 µM
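Also: spheroids exposed to compounds for seven days before readout.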

SMILES: CC(=O)O[C@H]1C(=O)[C@@]2(C)[C@H]([C@H](OC(=O)c3ccccc3)[C@]3(O)C[C@H](OC(=O)[C@H](O)[C@@H](NC(=O)c4ccccc4)c4ccccc4)C(C)=C1C3(C)C)[C@]1(OC(C)=O)CO[C@@H]1C[C@@H]2O + CN(C)c1ccc(Nc2c3ccc(NC(=O)CCN4CCCC4)cc3nc3cc(NC(=O)CCN4CCCC4)ccc23)cc1
- IC50 (second compound 0.0316 µM): > 10 µM
- IC50 (second compound 0.1 µM): > 10 µM
- IC50 (second compound 0.316 µM): > 10 µM
- IC50 (second compound 1 µM): > 10 µM
- IC50 (second compound 3.16 µM): > 10 µM
- IC50 (second compound 10 µM): > 10 µM
- viability, T/C [1]: 98.5%
- viability, T/C [2]: 90.7%
- viability, T/C [3]: 90.4%
- viability, T/C [4]: 85.6%
- viability, T/C [5]: 84%
- viability, T/C [6]: 73.2%
- viability, T/C [7]: 98.5%
- viability, T/C [8]: 87.8%
- viability, T/C [9]: 89.3%
- viability, T/C [10]: 79.8%
- viability, T/C [11]: 79.5%
- viability, T/C [12]: 68.7%
- viability, T/C [13]: 106%
- viability, T/C [14]: 96%
- viability, T/C [15]: 85.5%
- viability, T/C [16]: 84.5%
- viability, T/C [17]: 82.6%
- viability, T/C [18]: 70.1%
- viability, T/C [19]: 89.7%
- viability, T/C [20]: 88.4%
- viability, T/C [21]: 89.8%
- viability, T/C [22]: 85.5%
- viability, T/C [23]: 76.3%
- viability, T/C [24]: 69.8%
- viability, T/C [25]: 92.8%
- viability, T/C [26]: 96.7%
- viability, T/C [27]: 88.7%
- viability, T/C [28]: 84.3%
- viability, T/C [29]: 77.4%
- viability, T/C [30]: 66.3%
- viability, T/C [31]: 86.9%
- viability, T/C [32]: 84.8%
- viability, T/C [33]: 84.5%
- viability, T/C [34]: 75.8%
- viability, T/C [35]: 71.2%
- viability, T/C [36]: 61.9%

SMILES: CC1COCCN1c1cc(C2(S(C)(=N)=O)CC2)nc(-c2ccnc3[nH]ccc23)n1 (stereo not given) + Cc1[nH]c2ccc(F)cc2c1-c1nc2c3cccnc3c3ncccc3c2[nH]1
- IC50 (second compound 0.0316 µM): > 10 µM
- IC50 (second compound 0.1 µM): > 10 µM
- IC50 (second compound 0.316 µM): > 10 µM
- IC50 (second compound 1 µM): > 10 µM
- IC50 (second compound 3.16 µM): > 10 µM
- IC50 (second compound 10 µM): > 10 µM
- viability, T/C [1]: 99.3%
- viability, T/C [2]: 101%
- viability, T/C [3]: 87.6%
- viability, T/C [4]: 73.9%
- viability, T/C [5]: 76.9%
- viability, T/C [6]: 57.4%
- viability, T/C [7]: 103%
- viability, T/C [8]: 72.5%
- viability, T/C [9]: 102%
- viability, T/C [10]: 89.3%
- viability, T/C [11]: 73.2%
- viability, T/C [12]: 62.2%
- viability, T/C [13]: 87.9%
- viability, T/C [14]: 80.1%
- viability, T/C [15]: 84.8%
- viability, T/C [16]: 84.9%
- viability, T/C [17]: 74.6%
- viability, T/C [18]: 61.5%
- viability, T/C [19]: 70.5%
- viability, T/C [20]: 71.7%
- viability, T/C [21]: 70.3%
- viability, T/C [22]: 97%
- viability, T/C [23]: 83%
- viability, T/C [24]: 65.8%
- viability, T/C [25]: 61.9%
- viability, T/C [26]: 84%
- viability, T/C [27]: 75.9%
- viability, T/C [28]: 81.8%
- viability, T/C [29]: 71.9%
- viability, T/C [30]: 61.2%
- viability, T/C [31]: 66%
- viability, T/C [32]: 67.9%
- viability, T/C [33]: 80.8%
- viability, T/C [34]: 82%
- viability, T/C [35]: 67.6%
- viability, T/C [36]: 54.3%

SMILES: O=c1[nH]cc(F)c(=O)[nH]1 + Cc1cnc(CNC(=O)c2c(=O)c3ccc(N4CCCN(C)CC4)nc3n3c2sc2ccccc23)cn1
- IC50 (second compound 0.0316 µM): > 10 µM
- IC50 (second compound 0.1 µM): > 10 µM
- IC50 (second compound 0.316 µM): > 10 µM
- IC50 (second compound 1 µM): > 10 µM
- IC50 (second compound 3.16 µM): < 0.0316 µM
- IC50 (second compound 10 µM): < 0.0316 µM
- viability, T/C [1]: 108%
- viability, T/C [2]: 70.6%
- viability, T/C [3]: 70.8%
- viability, T/C [4]: 69.7%
- viability, T/C [5]: 76%
- viability, T/C [6]: 105%
- viability, T/C [7]: 94.2%
- viability, T/C [8]: 79.4%
- viability, T/C [9]: 72.4%
- viability, T/C [10]: 74.9%
- viability, T/C [11]: 94.2%
- viability, T/C [12]: 97.5%
- viability, T/C [13]: 83.6%
- viability, T/C [14]: 67.5%
- viability, T/C [15]: 80.9%
- viability, T/C [16]: 67.9%
- viability, T/C [17]: 86.4%
- viability, T/C [18]: 85.8%
- viability, T/C [19]: 77.8%
- viability, T/C [20]: 58%
- viability, T/C [21]: 63.8%
- viability, T/C [22]: 71.4%
- viability, T/C [23]: 80.1%
- viability, T/C [24]: 77.6%
- viability, T/C [25]: 44.9%
- viability, T/C [26]: 53.1%
- viability, T/C [27]: 59.9%
- viability, T/C [28]: 45.3%
- viability, T/C [29]: 72.2%
- viability, T/C [30]: 54.3%
- viability, T/C [31]: 28.3%
- viability, T/C [32]: 54.2%
- viability, T/C [33]: 48.8%
- viability, T/C [34]: 43.8%
- viability, T/C [35]: 54.6%
- viability, T/C [36]: 49.9%

The next lines start with results.

- IC50 (second compound 0.0316 µM): 0.12 µM
- IC50 (second compound 0.1 µM): 0.0684 µM
- IC50 (second compound 0.316 µM): 0.0792 µM
- IC50 (second compound 1 µM): 0.0519 µM
- IC50 (second compound 3.16 µM): < 0.0316 µM
- IC50 (second compound 10 µM): < 0.0316 µM
SMILES: CC1COCCN1c1cc(-c2ccnn2C)c2ccnc(-c3ccn[nH]3)c2n1 (stereo not given) + Cc1cnc(CNC(=O)c2c(=O)c3ccc(N4CCCN(C)CC4)nc3n3c2sc2ccccc23)cn1
- viability, T/C [1]: 62.7%
- viability, T/C [2]: 52%
- viability, T/C [3]: 38.8%
- viability, T/C [4]: 29.9%
- viability, T/C [5]: 28.1%
- viability, T/C [6]: 26.6%
- viability, T/C [7]: 59.9%
- viability, T/C [8]: 44.5%
- viability, T/C [9]: 36.2%
- viability, T/C [10]: 25.6%
- viability, T/C [11]: 29.4%
- viability, T/C [12]: 29.2%
- viability, T/C [13]: 69.3%
- viability, T/C [14]: 43.2%
- viability, T/C [15]: 37.3%
- viability, T/C [16]: 28%
- viability, T/C [17]: 30%
- viability, T/C [18]: 24.9%
- viability, T/C [19]: 58.8%
- viability, T/C [20]: 35.6%
- viability, T/C [21]: 34.1%
- viability, T/C [22]: 22.7%
- viability, T/C [23]: 27.7%
- viability, T/C [24]: 14.8%
- viability, T/C [25]: 21.8%
- viability, T/C [26]: 31.4%
- viability, T/C [27]: 28.9%
- viability, T/C [28]: 20.6%
- viability, T/C [29]: 20.5%
- viability, T/C [30]: 11.5%
- viability, T/C [31]: 24.9%
- viability, T/C [32]: 19.6%
- viability, T/C [33]: 24.8%
- viability, T/C [34]: 16.6%
- viability, T/C [35]: 13.6%
- viability, T/C [36]: 1.36%

- IC50 (second compound 0.0316 µM): > 10 µM
- IC50 (second compound 0.1 µM): > 10 µM
- IC50 (second compound 0.316 µM): > 10 µM
- IC50 (second compound 1 µM): > 10 µM
- IC50 (second compound 3.16 µM): < 0.0316 µM
- IC50 (second compound 10 µM): < 0.0316 µM
SMILES: COc1ncnc(C2CC2)c1-c1ncc2cnn(Cc3ccc(-c4nc(C(F)(F)F)cn4C(C)C)cc3)c2n1 + Cc1cnc(CNC(=O)c2c(=O)c3ccc(N4CCCN(C)CC4)nc3n3c2sc2ccccc23)cn1
- viability, T/C [1]: 104%
- viability, T/C [2]: 75.9%
- viability, T/C [3]: 80.3%
- viability, T/C [4]: 62.4%
- viability, T/C [5]: 83.7%
- viability, T/C [6]: 75.6%
- viability, T/C [7]: 90.4%
- viability, T/C [8]: 63.2%
- viability, T/C [9]: 71.9%
- viability, T/C [10]: 81.4%
- viability, T/C [11]: 72.1%
- viability, T/C [12]: 79.7%
- viability, T/C [13]: 66.3%
- viability, T/C [14]: 67.9%
- viability, T/C [15]: 58.5%
- viability, T/C [16]: 65.2%
- viability, T/C [17]: 62.8%
- viability, T/C [18]: 69.2%
- viability, T/C [19]: 56.1%
- viability, T/C [20]: 58.1%
- viability, T/C [21]: 70%
- viability, T/C [22]: 64.5%
- viability, T/C [23]: 68.4%
- viability, T/C [24]: 73.9%
- viability, T/C [25]: 34.3%
- viability, T/C [26]: 37.7%
- viability, T/C [27]: 42.8%
- viability, T/C [28]: 43%
- viability, T/C [29]: 53.2%
- viability, T/C [30]: 45.8%
- viability, T/C [31]: 18.6%
- viability, T/C [32]: 31.1%
- viability, T/C [33]: 43.1%
- viability, T/C [34]: 29.9%
- viability, T/C [35]: 34.6%
- viability, T/C [36]: 24.1%
